ChEMBL document CHEMBL5543112, “Discovery of CBPD-268 as an Exceptionally Potent and Orally Efficacious CBP/p300 PROTAC Degrader Capable of Achieving Tumor Regression” (J Med Chem, 2024)
Active and inactive are the calls of the source. The rule behind the calls is not given here.

Tests used:
[1] = Drug distribution in SCID mouse liver at 0.3 mg/kg, po measured at 24 hrs by LC-MS/MS analysis; type: ADME, organism-based; conditions: read-out: Ct
CWR22R [2] = assay: Antitumor activity against human 22Rv1 cells xenografted in SCID mouse assessed as tumor growth inhibition at 0.3 mg/kg, po administered 5 times a week for 3 weeks; type: functional; conditions: 22Rv1, 504 h, read-out: TGI
CWR22R [3] = assay: Antiproliferative activity against human 22Rv1 cells assessed as cell growth inhibition incubated for 4 days by celtiter-glo luminescent assay; conditions: 22Rv1, 96 h
CWR22R [4] = assay: Antitumor activity against human 22Rv1 cells xenografted in SCID mouse assessed as tumor growth inhibition at 1 mg/kg, po administered 5 times a week for 3 weeks; type: functional; conditions: 22Rv1, 504 h, read-out: TGI
[5] = Drug distribution in Sprague-Dawley rat plasma at 3 mg/kg, po measured at 1 hr by LC-MS/MS analysis; type: ADME, organism-based
[6] = Metabolic stability in mouse plasma assessed as half life measured upto 120 mins by LC-MS/MS analysis; type: ADME, cell-free
[7] = Drug distribution in Sprague-Dawley rat spleen at 3 mg/kg, po measured at 1 hr by LC-MS/MS analysis; type: ADME, organism-based; conditions: read-out: Ct
[8] = Drug distribution in Sprague-Dawley rat kidney at 3 mg/kg, po measured at 1 hr by LC-MS/MS analysis; type: ADME, organism-based; conditions: read-out: Ct
[9] = Drug distribution in SCID mouse spleen at 1 mg/kg, po measured at 6 hrs by LC-MS/MS analysis; type: ADME, organism-based; conditions: read-out: Ct
[10] = Drug distribution in SCID mouse plasma at 0.3 mg/kg, po measured at 1 hr by LC-MS/MS analysis; type: ADME, organism-based
[11] = Drug distribution in SCID mouse liver at 1 mg/kg, po measured at 1 hr by LC-MS/MS analysis; type: ADME, organism-based; conditions: read-out: Ct
[12] = Drug distribution in Sprague-Dawley rat kidney at 3 mg/kg, po measured at 6 hrs by LC-MS/MS analysis; type: ADME, organism-based; conditions: read-out: Ct
[13] = Toxicity in SCID mouse xenografted with human VCaP cells assessed as loss of body weight at 1 to 3 mg/kg, po measured up to 48 days; type: organism-based; conditions: in vivo, 1152 h, dose 1-3 mg/kg, time < 48 day
[14] = Drug distribution in SCID mouse liver at 3 mg/kg, po measured at 6 hrs by LC-MS/MS analysis; type: ADME, organism-based; conditions: read-out: Ct
[15] = Drug distribution in Sprague-Dawley rat spleen at 3 mg/kg, po measured at 6 hrs by LC-MS/MS analysis; type: ADME, organism-based; conditions: read-out: Ct
[16] = Drug distribution in SCID mouse plasma at 1 mg/kg, po measured at 6 hrs by LC-MS/MS analysis; type: ADME, organism-based
VCaP [17] = assay: Antitumor activity against human VCaP cells xenografted in SCID mouse assessed as tumor regression at 3 mg/kg, po administered 3 times a week for 4 weeks; type: functional
[18] = Toxicity in SCID mouse xenografted with human 22Rv1 cells assessed as loss of body weight at 0.3 to 3 mg/kg, po administered upto 3 weeks; type: organism-based, CWR22R; conditions: in vivo, 504 h, dose 0.3-3 mg/kg
[19] = Drug distribution in Sprague-Dawley rat kidney at 10 mg/kg, po measured at 1 hr by LC-MS/MS analysis; type: ADME, organism-based; conditions: read-out: Ct
[20] = Drug distribution in Sprague-Dawley rat plasma at 10 mg/kg, po measured at 6 hrs by LC-MS/MS analysis; type: ADME, organism-based
[21] = Drug distribution in SCID mouse spleen at 3 mg/kg, po measured at 1 hr by LC-MS/MS analysis; type: ADME, organism-based; conditions: read-out: Ct
[22] = Half life in ICR mouse at 3 mg/kg, po measured upto 24 hrs by LC/MS-MS analysis; type: ADME, organism-based; conditions: in vivo
[23] = Toxicity in immune-competent Sprague-Dawley rat at 1 to 10 mg/kg, po administered twice a week for 5 weeks; type: organism-based; conditions: in vivo, 840 h, dose 1-10 mg/kg
[24] = Drug distribution in SCID mouse plasma at 1 mg/kg, po measured at 24 hrs by LC-MS/MS analysis; type: ADME, organism-based
[25] = Volume of distribution at steady state in ICR mouse at 1 mg/kg, iv measured upto 24 hrs by LC/MS-MS analysis; type: ADME, organism-based; conditions: in vivo
CWR22R [26] = assay: Antitumor activity against human 22Rv1 cells xenografted in SCID mouse assessed as reduction in BRD4 level in tumor at 1 to 3 mg/kg, po measured at 6 to 24 hrs by Western blotting analysis; type: functional, organism-based; conditions: dose 1-3 mg/kg, time 6-24 hrs
[27] = Drug distribution in Sprague-Dawley rat liver at 10 mg/kg, po measured at 1 hr by LC-MS/MS analysis; type: ADME, organism-based; conditions: read-out: Ct
[28] = Toxicity in immune-competent Sprague-Dawley rat assessed as change in creatinine level at 1 to 10 mg/kg, po administered twice a week for 5 weeks; type: organism-based; conditions: in vivo, 840 h, dose 1-10 mg/kg
[29] = Drug distribution in Sprague-Dawley rat heart at 10 mg/kg, po measured at 6 hrs by LC-MS/MS analysis; type: ADME, organism-based; conditions: read-out: Ct
VCaP [30] = assay: Antitumor activity against human VCaP cells xenografted in SCID mouse assessed as tumor growth inhibition at 3 mg/kg, po administered for 4 week; type: functional; conditions: 672 h, time 4 weeks, read-out: TGI
[31] = Drug concentration in SCID mouse plasma at 1 mg/kg, po measured at 1 hr by LC-MS/MS analysis; type: ADME, organism-based
[32] = Drug distribution in Sprague-Dawley rat heart at 10 mg/kg, po measured at 1 hr by LC-MS/MS analysis; type: ADME, organism-based; conditions: read-out: Ct
[33] = Drug distribution in Sprague-Dawley rat heart at 3 mg/kg, po measured at 6 hrs by LC-MS/MS analysis; type: ADME, organism-based; conditions: read-out: Ct
[34] = Toxicity in immune-competent Sprague-Dawley rat assessed as change in white blood cells count at 1 to 10 mg/kg, po administered twice a week for 5 weeks; type: organism-based; conditions: in vivo, 840 h, dose 1-10 mg/kg
[35] = Drug distribution in SCID mouse spleen at 3 mg/kg, po measured at 24 hrs by LC-MS/MS analysis; type: ADME, organism-based; conditions: read-out: Ct
[36] = Drug distribution in SCID mouse tumor at 3 mg/kg, po measured at 24 hrs by LC-MS/MS analysis; type: ADME, organism-based, Neoplasm; conditions: read-out: Ct
[37] = Drug distribution in SCID mouse liver at 3 mg/kg, po measured at 1 hr by LC-MS/MS analysis; type: ADME, organism-based; conditions: read-out: Ct
[38] = AUC in ICR mouse at 3 mg/kg, po measured upto 24 hrs by LC/MS-MS analysis; type: ADME, organism-based; conditions: in vivo
[39] = Drug distribution in SCID mouse liver at 0.3 mg/kg, po measured at 6 hrs by LC-MS/MS analysis; type: ADME, organism-based; conditions: read-out: Ct
[40] = Plasma protein binding in mouse by LC-MS analysis; type: ADME, cell-free; conditions: read-out: PPB (converted)
[41] = Toxicity in immune-competent Sprague-Dawley rat assessed as decrease in glucose level at 10 mg/kg, po administered twice a week for 5 weeks; type: organism-based; conditions: in vivo, 840 h
LNCaP = assay: Antiproliferative activity against human LNCaP cells assessed as cell growth inhibition incubated for 4 days by celtiter-glo luminescent assay; conditions: 96 h
[42] = Drug distribution in Sprague-Dawley rat liver at 3 mg/kg, po measured at 24 hrs by LC-MS/MS analysis; type: ADME, organism-based; conditions: read-out: Ct

concentration at 24 h [1]: 5.6 ng/mL
concentration at 1 h [5]: 109 ng/mL
half-life [6]: > 2 h
concentration at 1 h [7]: 832 ng/g
concentration at 1 h [8]: 514 ng/g
concentration at 6 h [9]: 127 ng/mL
concentration at 1 h [10]: 35.2 ng/mL
concentration at 1 h [11]: 1640 ng/mL
concentration at 6 h [12]: 59.2 ng/g
concentration at 6 h [14]: 1750 ng/mL
concentration at 6 h [15]: 112 ng/g
concentration at 6 h [16]: 43.2 ng/mL
concentration at 1 h [19]: 1170 ng/g
concentration at 6 h [20]: 41.4 ng/mL
concentration at 1 h [21]: 937 ng/mL
half-life [22]: 3.1 h
concentration at 24 h [24]: 3.3 ng/mL
Vdss [25]: 4.9 L/kg
concentration at 1 h [27]: 4100 ng/g
concentration at 6 h [29]: 83 ng/g
concentration at 1 h [31]: 141 ng/mL
concentration at 1 h [32]: 638 ng/g
concentration at 6 h [33]: 26.4 ng/g
concentration at 24 h [35]: 21.2 ng/mL
concentration at 24 h [36]: 12 ng/mL
concentration at 1 h [37]: 3300 ng/mL
AUC at 24 h [38]: 4190 ng·h/mL
concentration at 6 h [39]: 86.8 ng/mL
fraction unbound [40]: 0.016
IC50 (LNCaP): 10.3 nM
concentration at 24 h [42]: 8.4 ng/g
SMILES: CC(=O)N1CCc2c(c(N3CCCc4cc(-c5cnn(C)c5)c(C(F)F)cc43)nn2[C@H]2CC[C@H](CN3Cc4cc5c(cc4C3)C(=O)N(C3CCC(=O)NC3=O)C5=O)CC2)C1 (stereo partly drawn)
inhibition in vivo at 0.3 mg/kg (CWR22R [2]): 56%
IC50 (CWR22R [3]): 3.7 nM
inhibition in vivo at 1 mg/kg (CWR22R [4]): 75%
Activity [13]: < 7%
Activity (VCaP [17]): 67%
Activity [18]: Non-Toxic
Activity [23]: Non-Toxic
Activity (CWR22R [26]): Active
Activity [28]: Non-Toxic
inhibition in vivo at 3 mg/kg (VCaP [30]): 57%
Activity [34]: Non-Toxic
Activity [41]: Non-Toxic
